Measurements published in ChEMBL document CHEMBL1125013, “Quinazoline antifolate thymidylate synthase inhibitors: 2'-fluoro-N10-propargyl-5,8-dideazafolic acid and derivatives with modifications in the C2 position” (J Med Chem, 1990).

Experiments:
[1] = tested on: L1210; experiment: The inhibitory activity was determined on L1210 mouse leukemia cell in presence of thymidine; assay type: functional; design: scale not given: the % may be the effect or the level left
[2] = tested on: L1210; experiment: Concentration required to inhibit 50% growth of L1210 mouse leukemia cells was determined; assay type: functional, cell-based
[3] = tested on: L1210 (R7A); experiment: Concentration required to inhibit 50% growth of L1210 of R7A mutant mouse leukemia cell line was determined; assay type: functional, cell-based
[4] = tested on: L1210 (1565); experiment: cells; assay type: functional, cell-based; conditions: Mus musculus
Description: Concentration required to inhibit 50% growth of L1210 /1565 mutant mouse leukemia cell line was determined

[5] = target: Thymidylate synthase (Mus musculus, UniProt P07607); experiment: Concentration required to inhibit 50% activity of Thymidylate synthase was determined
Thymidylate synthase, sequence (P07607 whole entry): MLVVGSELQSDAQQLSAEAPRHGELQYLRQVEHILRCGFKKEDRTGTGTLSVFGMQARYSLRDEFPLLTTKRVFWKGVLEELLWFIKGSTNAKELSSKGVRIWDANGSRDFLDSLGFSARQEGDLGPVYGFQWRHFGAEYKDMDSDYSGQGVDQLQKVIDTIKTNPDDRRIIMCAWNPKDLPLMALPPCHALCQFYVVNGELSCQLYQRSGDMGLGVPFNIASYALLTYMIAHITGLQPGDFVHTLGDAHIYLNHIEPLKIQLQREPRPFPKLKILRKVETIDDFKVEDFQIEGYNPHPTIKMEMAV

In the case of `C#CCN(Cc1ccc2[nH]c(N)nc(=O)c2c1)c1ccc(C(=O)N[C@@H](CCC(=O)O)C(=O)O)cc1`, the Control [1] is reported as 96%, the IC50 [2] is reported as 3500 nM and the IC50 [3] is reported as 41000 nM. The IC50 [4] was 3600 nM.

With `C#CCN(Cc1ccc2nc(C)[nH]c(=O)c2c1)c1ccc(C(=O)N[C@@H](CCC(=O)O)C(=O)O)cc1` the Control [1] was 100%, the IC50 [2] was 85 nM and the IC50 [3] was 390 nM. It also gave an IC50 [4] of 8300 nM.

`C#CCN(Cc1ccc2nc[nH]c(=O)c2c1)c1ccc(C(=O)N[C@@H](CCC(=O)O)C(=O)O)cc1` gave a Control [1] of 100%, an IC50 [2] of 360 nM and an IC50 [3] of 7500 nM. The IC50 [4] was 4100 nM.

`C#CCN(Cc1ccc2nc(N)[nH]c(=O)c2c1)c1ccc(C(=O)N[C@@H](CCC(=O)O)C(=O)O)c(F)c1` showed an IC50 [5] of 9 nM, a Control [1] of 84% and an IC50 [2] of 1100 nM. It also gave an IC50 [3] of 6200 nM and an IC50 [4] of 600 nM.

In the case of `C#CCN(Cc1ccc2nc(OC)[nH]c(=O)c2c1)c1ccc(C(=O)N[C@@H](CCC(=O)O)C(=O)O)cc1`, the Control [1] is reported as 100%, the IC50 [2] is reported as 1900 nM and the IC50 [3] is reported as 14000 nM. It also gave an IC50 [4] of 160000 nM.

`C#CCN(Cc1ccc2nc(C)[nH]c(=O)c2c1)c1ccc(C(=O)N[C@@H](CCC(=O)O)C(=O)O)c(F)c1` gave an IC50 [5] of 20 nM, a Control [1] of 97% and an IC50 [2] of 27 nM. The IC50 [3] was 110 nM and the IC50 [4] was 2200 nM.

Compound `C#CCN(Cc1ccc2nc(OC)[nH]c(=O)c2c1)c1ccc(C(=O)N[C@@H](CCC(=O)O)C(=O)O)c(F)c1` has an IC50 [5] of 36 nM, a Control [1] of 89% and an IC50 [2] of 1000 nM. The IC50 [4] was 45000 nM.

For `C#CCN(Cc1ccc2nc[nH]c(=O)c2c1)c1ccc(C(=O)N[C@@H](CCC(=O)O)C(=O)O)c(F)c1`, the IC50 [5] was 58 nM, the Control [1] was 84% and the IC50 [2] was 290 nM. It also gave an IC50 [3] of 3800 nM and an IC50 [4] of 1200 nM.

`C#CCN(Cc1ccc2nc(CO)[nH]c(=O)c2c1)c1ccc(C(=O)N[C@@H](CCC(=O)O)C(=O)O)c(F)c1` was tested, and the Control [1] was 82%, the IC50 [2] was 1900 nM and the IC50 [4] was 6000 nM.
